Assay results published in patent US20240226228A1, “ANTIMICROBIAL PEPTOID HAVING IMPROVED SELECTIVITY AND ANTIMICROBIAL COMPOSITION COMPRISING SAME” (priority 2021, published 2024).
In brackets after ≈: the same amount, converted by molar mass. Where two headings read alike, the source gives them in different places. Where a SMILES comes first, the peptide text is derived from it. [ ]: non-standard residue; d: D form. Gly(N(CH2)2(3-indolyl)) = O=C(O)CNCCc1c[nH]c2ccccc12; Nspe = C[C@H](NCC(=O)O)c1ccccc1; Nlys = NCCCCNCC(=O)O

Columns and labels:
red blood cells = experiment: Hemolysis assay; format: cell-based, Sprague-Dawley mouse
Procedure, shortened: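 Peptoid is mixed with 10% (v/v) PBS-washed erythrocytes (male Sprague-Dawley […], 13 weeks) and held 1 h at 37 °C. Hemolysis is calculated from 540 nm absorbance of the supernatant, with PBS as 0% and Triton X-100 as 100%.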

E. coli ATCC25922 = test system: E. coli ATCC25922
Procedure, shortened: (§1)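 Cation-adjusted MHB2 cultures (18 h, subcultured 4 h) adjusted to 2×10^5–5×10^5 CFU/mL in medium with 0.02% BSA and 0.001% acetic acid.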

S. aureus ATCC 25923 = test system: S. aureus ATCC 25923
Procedure, shortened: as §1

P. aeruginosa KCTC 1637 = experiment: MIC in multidrug-resistant bacteria, modified microdilution method; format: cell-based; settings: Table 14
Protocol: (§2) The MIC of the prepared peptoid in multidrug-resistant bacteria was measured using a modified microdilution method in a Difco Mueller Hinton medium, and a test was performed on a bacterial pathogen panel with resistant and tolerance to general antibiotics.
(§3) Briefly, a medium containing bovine serum albumin and 0.001% acetic acid was used to continuously dilute a peptoid concentrate 10-times stronger than the final concentration. 10 uμL of the 10-time stronger peptoid concentrate and 90 μL of a Muleller Hinton medium were added to each well of a 96-well plate. Bacteria were added to the plate until the final concentration reached 2×10^5 CFU/mL and then incubated at […] overnight. MIC was defined as a concentration at which bacterial growth is not observed.

[1] = test system: Enterobacter SP KCTC 2625; experiment: as above; format: cell-based; settings: Table 14
Protocol: as §2, §3

E. coli KCTC 2411 = experiment: as above; format: cell-based; settings: Table 14
Protocol: as §2, §3

[2] = test system: Enterococcus Faecium KCTC 13225; experiment: as above; format: cell-based; settings: Table 14
Protocol: as §2, §3

[3] = test system: Enterococcus faecalis KCTC 3511; experiment: as above; format: cell-based; settings: Table 14
Protocol: as §2, §3

[4] = HPLC to confirm peptoid decomposition after counter ion substitution; format: physicochemical; settings: HPLC at 220 nm; HCl and AcOH
Protocol: FIGS. 76 to 83 are the HPLC results for Peptoids 1, 10, 11, 14, 15, 29, 32 and 37 of the present inventive concept to confirm the decomposition of the peptoids after counter ion substitution using (a) HCl and (b) AcOH.
Referring to FIGS. […], HPLC was performed for Peptoids 1, 10, 11, 14, 15, 29, 32 and 37 of the present inventive concept. Since the chloride (HCl) is a stronger acid than TFA, it can decompose acid-vulnerable peptoid compounds.

in vitro = experiment: in vitro
Protocol: (§4) Human lung cells (MRC-5) were purchased from the Korean Cell Line Bank, and human keratinocytes (HaCaT) were purchased from the AmorePacific R&D Center. All cells were grown in a Dulbecco's modified Eagle's medium containing 10% fetal bovine serum under conditions of 5% CO2 and 37° C. To confirm the effect of a peptoid on cell growth, 3-(4,5-dimethylthiazol-2-yl)-5-(3-carboxymethoxyphenyl)-2-(4-sulfophenyl)-2H-tetrazolium (MTS) cell assay was performed to determine cell viability. An aliquot (100 μL) of a batch including 1.3×10^4 MRC-5 cells/mL or 3×10^4 HaCaT cells/mL was dispensed into each well of a 96-well plate. The cells were grown at 37° C. in a 5% CO2 humid atmosphere and allowed to adhere for 24 hours. When the cells reached approximately 70% confluency, the medium was replaced with serial dilutions of the peptoid stock and incubated for 24 hours. 20 μL of a CellTiter 96 aqueous non-radioactive cell proliferation assay reagent (Promega, USA) including a tetrazolium compound was added to each well.
(§5) The contents in the plate were metabolized by incubating at 37° C. for 4 hours. An MTS-formazan product of viable cells was measured at 490 nm using a microplate reader, and cell viability (%) was calculated by Equation 2 below and compared with untreated cells.
(§6) Cell viability (%)=[A/(Acontrol)]×100 [Equation 2]
(§7) In Equation 2, A is the absorbance of a test well, and Acontrol is the average absorbance of a well containing untreated cells.
(§8) The term “nd” shown in Table 19 below is the abbreviation for not determined, and indicates a value that is too small or too large to be measured.

[5] = test system: human keratinocytes (HaCaT); experiment: in vitro
Protocol: as §4, §5, §6, §7, §8

Human lung cells (MRC-5) = experiment: in vitro
Protocol: as §4, §5, §6, §7, §8

[6] = Table 18, TFA salt vs counter ion-substituted peptoids
[7] = Tables 11-13, concentration that induces hemolysis in 10% red blood cells
[8] = Tables 11-13, concentration that induces hemolysis in 50% red blood cells
[9] = Table 18, TFA salt vs counter ion-substituted (HCl, AcOH) peptoids
[10] = Tables 11-13, 24 hours at 37° C., maximum concentration 25 μM

SMILES | HC10 (red blood cells; [7]) | HC50 (red blood cells; [8]) | MIC E. coli ATCC25922 (E. coli ATCC25922; [9]) | MIC E. coli ATCC25922 (E. coli ATCC25922; [10]) | MIC S. aureus ATCC 25923 (S. aureus ATCC 25923; [9]) | MIC S. aureus ATCC 25923 (S. aureus ATCC 25923; [10]) | MIC Enterobacter SP KCTC 2625 [1] | MIC E. coli KCTC 2411 (E. coli KCTC 2411) | MIC Enterococcus Faecium KCTC 13225 [2] | MIC Enterococcus faecalis KCTC 3511 [3] | peptoid decomposition after counter ion substitution (in words) [4] | CC50 at 24 h (in vitro; human, LC50 MRC-5) | HC10 (red blood cells) | HC50 (red blood cells) | Hmax (100 μM) (red blood cells) | LC50 / animal cell toxicity, HaCaT (in words) [5] | LC50 / animal cell toxicity, MRC-5 (in words) (Human lung cells (MRC-5)) | other results
C[C@@H](c1ccccc1)N(CC(N)=O)C(=O)CN(C(=O)CN(CCCCN)C(=O)CN(C(=O)CN(C(=O)CN(CCCCN)C(=O)CN(C(=O)CN(C(=O)CN(CCCCN)C(=O)CN(C(=O)CN(C(=O)CNCCCCN)[C@@H](C)c1ccccc1)[C@@H](C)c1ccccc1)[C@@H](C)c1ccccc1)[C@@H](C)c1ccccc1)[C@@H](C)c1ccccc1)[C@@H](C)c1ccccc1)[C@@H](C)c1ccccc1 [Peptoid 1, H-NLys-Nspe-Nspe-NLys-Nspe-Nspe-NLys-Nspe-Nspe-NLys-Nspe-Nspe-NH2, reference compound] (H-[Nlys][Nspe][Nspe][Nlys][Nspe][Nspe][Nlys][Nspe][Nspe][Nlys][Nspe][Nspe]-NH2) | 8.3 µM | 22.9 µM | 6.3 µM | 6.3 µM (≈ 11.5 µg/mL) | 1.6 µM | 1.6 µM (≈ 2.91 µg/mL) | 6.3 µM (≈ 11.5 µg/mL) | 6.3 µM (≈ 11.5 µg/mL) | < 0.8 µM | 0.8 µM (≈ 1.46 µg/mL) | almost no peptoid decomposition occurred | – | – | – | – | – | – | HC10 (red blood cells; [6]): 15.9 µM; HC50 (red blood cells; [6]): 49.0 µM; Hmax (100 μM) (red blood cells; [6]): 72.1 ± 2.1%; Hmax (100 μM) (red blood cells; Tables 11-13, hemolysis rate at maximum peptoid concentration): 112.3 ± 0.7%; HD10 (red blood cells; first value of HD10/HD50 cell, hemolysis, in µM): 22.9; Hmax (100 μM) (red blood cells; hemolysis at 100 μM): 75.8; HD50 (red blood cells; second value of HD10/HD50 cell, hemolysis, in µM): 79.0; MIC E. coli ATCC25922 (E. coli ATCC25922; gram-negative bacteria, E. coli ATCC25922 strain): 3.1 µM (≈ 5.64 µg/mL); MIC S. aureus ATCC 25923 (S. aureus ATCC 25923; gram-positive bacteria, S. aureus ATCC25923 strain): 1.6 µM (≈ 2.91 µg/mL); MIC P. aeruginosa KCTC 1637 (P. aeruginosa KCTC 1637): 25 µM (≈ 45.5 µg/mL); CC50 at 24 h (in vitro): 7.3 µM; CC50 at 24 h (in vitro; LC50 MRC-5, 24 hours incubation, concentration that causes 50% cell lethality): 8.1 µM
C[C@@H](c1ccccc1)N(CC(=O)N(CCCCN)CC(=O)N(CC(=O)N(CC(=O)N(CCCCN)CC(=O)N(CC(=O)N(CC(=O)N(CCCCN)CC(=O)N(CCc1c[nH]c2ccccc12)CC(=O)N(CCc1c[nH]c2ccccc12)CC(N)=O)[C@@H](C)c1ccccc1)[C@@H](C)c1ccccc1)[C@@H](C)c1ccccc1)[C@@H](C)c1ccccc1)C(=O)CN(C(=O)CNCCCCN)[C@@H](C)c1ccccc1 [Peptoid 11, H-NLys-Nspe-Nspe-NLys-Nspe-Nspe-NLys-Nspe-Nspe-NLys-NhTrp-NhTrp-NH2] (H-[Nlys][Nspe][Nspe][Nlys][Nspe][Nspe][Nlys][Nspe][Nspe][Nlys][Gly(N(CH2)2(3-indolyl))][Gly(N(CH2)2(3-indolyl))]-NH2) | – | – | 3.1 µM | 6.3 µM (≈ 12 µg/mL) | 1.6 µM | 1.6 µM (≈ 3.04 µg/mL) | 6.3 µM (≈ 12 µg/mL) | 12.5 µM (≈ 23.7 µg/mL) | < 0.8 µM | < 0.8 µM | almost no peptoid decomposition occurred | 6.9 µM | – | – | – | – | – | –
C[C@@H](c1ccccc1)N(CC(N)=O)C(=O)CN(C(=O)CN(CCCCN)C(=O)CN(C(=O)CN(C(=O)CN(CCCCN)C(=O)CN(C(=O)CN(C(=O)CN(CCCCN)C(=O)CN(CCc1c[nH]c2ccccc12)C(=O)CN(CCc1c[nH]c2ccccc12)C(=O)CNCCCCN)[C@@H](C)c1ccccc1)[C@@H](C)c1ccccc1)[C@@H](C)c1ccccc1)[C@@H](C)c1ccccc1)[C@@H](C)c1ccccc1 [Peptoid 14, H-NLys-NhTrp-NhTrp-NLys-Nspe-Nspe-NLys-Nspe-Nspe-NLys-Nspe-Nspe-NH2] | 23.6 µM | 43.4 µM | 3.1 µM | 3.1 µM (≈ 5.88 µg/mL) | 1.6 µM | <0.8 µM | 3.1 µM (≈ 5.88 µg/mL) | 6.3 µM (≈ 12 µg/mL) | < 0.8 µM | 1.6 µM (≈ 3.04 µg/mL) | almost no peptoid decomposition occurred | 9.7 µM | 12.5 µM | 21.1 µM | – | – | – | –
C[C@@H](c1ccccc1)N(CC(=O)N(CCCCN)CC(=O)N(CCc1c[nH]c2ccccc12)CC(=O)N(CCc1c[nH]c2ccccc12)CC(N)=O)C(=O)CN(CCCCN)C(=O)CN(CCCCN)C(=O)CN(C(=O)CN(C(=O)CN(CCCCN)C(=O)CN(C(=O)CN(C(=O)CNCCCCN)[C@@H](C)c1ccccc1)[C@@H](C)c1ccccc1)[C@@H](C)c1ccccc1)[C@@H](C)c1ccccc1 [Peptoid 29-1] (H-[Nlys][Nspe][Nspe][Nlys][Nspe][Nspe][Nlys][Nlys][Nspe][Nlys][Gly(N(CH2)2(3-indolyl))][Gly(N(CH2)2(3-indolyl))]-NH2) | – | – | 12.5 µM | – | 12.5 µM | – | – | – | – | – | – | – | >100/>100 μM | >100/>100 μM | 4.3 ± 0.3% | LC50 values of the peptoids increase | LC50 values of the peptoids increase | –
C[C@@H](c1ccccc1)N(CC(=O)N(CCCCN)CC(=O)N(CCc1c[nH]c2ccccc12)CC(=O)N(CCc1c[nH]c2ccccc12)CC(N)=O)C(=O)CN(CCCCN)C(=O)CN(CCCCN)C(=O)CN(C(=O)CN(C(=O)CN(CCCCN)C(=O)CN(C(=O)CN(C(=O)CNCCCCN)[C@@H](C)c1ccccc1)[C@@H](C)c1ccccc1)[C@@H](C)c1ccccc1)[C@@H](C)c1ccccc1 [Peptoid 29-2] (H-[Nlys][Nspe][Nspe][Nlys][Nspe][Nspe][Nlys][Nlys][Nspe][Nlys][Gly(N(CH2)2(3-indolyl))][Gly(N(CH2)2(3-indolyl))]-NH2) | – | – | 6.3 µM | – | 12.5 µM | – | – | – | – | – | – | – | >100/>100 μM | >100/>100 μM | 5.2 ± 0.2% | LC50 values of the peptoids increase | LC50 values of the peptoids increase | –
C[C@@H](c1ccccc1)N(CC(N)=O)C(=O)CN(CCCCN)C(=O)CN(CCCCN)C(=O)CN(C(=O)CN(C(=O)CN(CCCCN)C(=O)CN(C(=O)CN(C(=O)CN(CCCCN)C(=O)CN(CCc1c[nH]c2ccccc12)C(=O)CN(CCc1c[nH]c2ccccc12)C(=O)CNCCCCN)[C@@H](C)c1ccccc1)[C@@H](C)c1ccccc1)[C@@H](C)c1ccccc1)[C@@H](C)c1ccccc1 [Peptoid 32-2] | – | – | 6.3 µM | – | 6.3 µM | – | – | – | – | – | – | – | 83.0 µM | > 100 µM | 13.8 ± 1.1% | LC50 values of the peptoids increase | LC50 values of the peptoids increase | –
